# In BindingDB's records for doi:10.1074/jbc.M110.120576 (Pharmaleads, 2010):
# Molecular target: EEF1AKMT4-ECE2 readthrough transcript protein (Homo sapiens, UniProt P0DPD8)
# Assay: Enzymatic Assay
# From the text: Inhibitory assay against ECE-2.
# Chain of EEF1AKMT4-ECE2 readthrough transcript protein (P0DPD8 whole entry): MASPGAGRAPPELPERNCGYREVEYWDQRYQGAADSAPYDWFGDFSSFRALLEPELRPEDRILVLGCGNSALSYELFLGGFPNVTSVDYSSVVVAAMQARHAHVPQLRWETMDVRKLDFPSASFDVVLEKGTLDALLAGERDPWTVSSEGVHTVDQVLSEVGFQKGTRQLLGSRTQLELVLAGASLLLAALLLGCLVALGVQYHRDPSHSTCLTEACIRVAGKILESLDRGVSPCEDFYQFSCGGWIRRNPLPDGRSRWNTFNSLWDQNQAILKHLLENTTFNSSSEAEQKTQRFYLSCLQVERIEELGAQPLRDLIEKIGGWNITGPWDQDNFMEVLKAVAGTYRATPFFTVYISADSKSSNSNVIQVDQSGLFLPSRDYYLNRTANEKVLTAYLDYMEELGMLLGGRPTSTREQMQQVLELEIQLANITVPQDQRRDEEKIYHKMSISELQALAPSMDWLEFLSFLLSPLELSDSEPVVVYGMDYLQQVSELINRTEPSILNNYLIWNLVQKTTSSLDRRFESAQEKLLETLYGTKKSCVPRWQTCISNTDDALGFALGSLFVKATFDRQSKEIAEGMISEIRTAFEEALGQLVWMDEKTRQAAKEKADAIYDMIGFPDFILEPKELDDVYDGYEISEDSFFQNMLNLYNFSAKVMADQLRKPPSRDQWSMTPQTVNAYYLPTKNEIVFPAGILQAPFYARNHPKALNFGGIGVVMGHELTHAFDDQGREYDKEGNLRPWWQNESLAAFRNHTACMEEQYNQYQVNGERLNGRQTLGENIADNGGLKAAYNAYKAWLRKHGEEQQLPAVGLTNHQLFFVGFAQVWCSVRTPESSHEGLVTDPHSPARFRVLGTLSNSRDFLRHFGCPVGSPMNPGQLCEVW
IC50,Ki,Compound
43.4 nM,22.3 nM,"O=C(N[C@@H](Cc1c[nH]c2ccccc12)C(=O)O)C(CS)C1CCc2cc(Br)ccc21 (stereo partly drawn) [(2S)-2-[2-(5-bromo-2,3-dihydro-1H-inden-1-yl)-3-sulfanylpropanamido]-3-(1H-indol-3-yl)propanoic acid, 1]"
15.1 nM,7.7 nM,"O=C(O)[C@H](Cc1c[nH]c2ccccc12)NC(=O)[C@H](CS)C1CCc2ccccc21 (stereo partly drawn) [(2S)-2-[(2R)-2-(2,3-dihydro-1H-inden-1-yl)-3-sulfanylpropanamido]-3-(1H-indol-3-yl)propanoic acid, 2]"
380 nM,195 nM,C[C@H](NC(=O)[C@@H](CC(=O)NO)Cc1ccccc1)C(=O)O [Kelatorphan]
> 10000 nM,> 10000 nM,O=C(O)CC(=O)N[C@@H](CS)Cc1ccccc1 [Retrothiorphan]

Compound,IC50,Ki
O=C(O)CNC(=O)[C@@H](CS)Cc1ccccc1 [2-(2-benzyl-3-sulfanylpropanamido)acetic acid],> 100000 nM,> 100000 nM
C[C@H](CS)C(=O)N1CCC[C@H]1C(=O)O [(2S)-1-[(2S)-2-methyl-3-sulfanylpropanoyl]pyrrolidine-2-carboxylic acid],> 100000 nM,> 100000 nM
"CC(C)C[C@H](NP(=O)(O)O[C@@H]1O[C@@H](C)[C@H](O)[C@@H](O)[C@H]1O)C(=O)N[C@@H](Cc1c[nH]c2ccccc12)C(=O)O [(S)-2-{(R)-2-[Hydroxy-((2R,3R,4R,5R,6S)-3,4,5-trihydroxy-6-methyl-tetrahydro-pyran-2-yloxy)-phosphorylamino]-4-methyl-pentanoylamino}-3-(1H-indol-3-yl)-propionic acid]",2.33 nM,1.2 nM
